The text below walks through data of patent US12390472B2 (SUZHOU SINOVENT PHARMACEUTICALS CO., LTD., priority 2018, dated 2025).

Where two headings read alike, the source gives them in different places.

Series [1] addresses EZH2 enzyme complex (Homo sapiens (Human), UniProt Q15910). Briefly: Test on EZH2 inhibitory activity (TR-FRET). Format: biochemical. Conditions: EZH2 enzyme complex 25 ng/uL, histone H3 peptide 4 uM, SAM 2 uM, 300 min; read-out: IC50 of EZH2 inhibition. (In general: Time-resolved FRET reads energy transfer from a long-lived donor to a nearby acceptor.)
Method: • EZH2 enzyme complex: 25 ng/uL • Histone H3 peptide substrate: 4 uM • SAM: 2 uM • Reaction time: 300 min Procedures • 1. Each compound disclosed herein was diluted with 1×HMT buffer and transferred to a 384-well assay plate at 3 uL per well; • 2. The EZH2 enzyme solution was prepared with 1×HMT buffer and transferred to the 384-well assay plate at 2 uL per well; • 3. The above assay plate was incubated for 30 min; • 4. A mixture solution of SAM and histone H3 peptide substrate at 2-fold concentration was prepared with 4×HMT buffer; • 5. 5 uL of the mixture solution of SAM and substrate was added to each well of the assay plate to react at room temperature, and the assay plate was sealed with plastic; • 6. After incubation for 5 h, 10 uL of TR-FRET detection buffer containing Tb-labeled antibody and dye-labeled receptor was added to each well of the assay plate; • 7. After incubation for 1 h at room temperature, the assay plate was detected; • 8.
Series [2] deals with WSU-DLCL2 cells. As to the kind of experiment: Experiment on WSU-DLCL2 cell proliferation (Calcein-AM). The series is classed as cell-based. Conditions: Homo sapiens.
In series [3] the test system is Pfeiffer cells. As to the kind of experiment: Experiment on Pfeiffer cell proliferation (CellTiter-Glo). Format: cell-based, human. Conditions: Homo sapiens. In general terms: Cellular ATP, detected with luciferase, serves as a proxy for viable cell number.
Series [4] in a line: In vivo pharmacokinetic properties in mice. Conditions: male ICR mice. Also noted: species or system mouse. The procedure, abridged: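 Male ICR mice, n=3 per group, dosed once at 5 mg/kg IV in 10% DMSO/90% (20% Captisol) or 250 mg/kg intragastrically in 0.5% CMC-Na/0.1% Tween 80 (pH 3-4). EDTA-K2 plasma sampled from 5 min to 24 h; compound levels measured by LC-MS/MS.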

EZH2 enzyme complex, sequence (Q15910 whole entry): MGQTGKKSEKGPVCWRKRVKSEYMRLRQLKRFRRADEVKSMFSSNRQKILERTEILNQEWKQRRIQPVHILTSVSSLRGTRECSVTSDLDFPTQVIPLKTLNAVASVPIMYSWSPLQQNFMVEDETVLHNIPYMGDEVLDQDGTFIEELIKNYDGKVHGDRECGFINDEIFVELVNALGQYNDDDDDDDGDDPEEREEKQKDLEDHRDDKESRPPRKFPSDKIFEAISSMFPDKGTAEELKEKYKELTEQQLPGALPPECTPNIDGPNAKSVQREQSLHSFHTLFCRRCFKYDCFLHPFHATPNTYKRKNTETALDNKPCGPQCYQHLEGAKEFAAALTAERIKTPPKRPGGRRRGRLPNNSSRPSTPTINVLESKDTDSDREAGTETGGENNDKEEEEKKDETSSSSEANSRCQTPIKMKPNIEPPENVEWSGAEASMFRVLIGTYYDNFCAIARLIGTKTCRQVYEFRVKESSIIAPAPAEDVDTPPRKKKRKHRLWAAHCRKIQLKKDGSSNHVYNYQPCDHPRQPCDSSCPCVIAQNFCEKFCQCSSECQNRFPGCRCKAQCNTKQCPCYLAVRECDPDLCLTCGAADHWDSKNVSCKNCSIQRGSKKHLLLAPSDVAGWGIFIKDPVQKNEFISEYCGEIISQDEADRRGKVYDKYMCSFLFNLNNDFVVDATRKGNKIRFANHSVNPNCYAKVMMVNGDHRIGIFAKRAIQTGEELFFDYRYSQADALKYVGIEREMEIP
EZH2 enzyme complex, sequence (O75530 whole entry partner): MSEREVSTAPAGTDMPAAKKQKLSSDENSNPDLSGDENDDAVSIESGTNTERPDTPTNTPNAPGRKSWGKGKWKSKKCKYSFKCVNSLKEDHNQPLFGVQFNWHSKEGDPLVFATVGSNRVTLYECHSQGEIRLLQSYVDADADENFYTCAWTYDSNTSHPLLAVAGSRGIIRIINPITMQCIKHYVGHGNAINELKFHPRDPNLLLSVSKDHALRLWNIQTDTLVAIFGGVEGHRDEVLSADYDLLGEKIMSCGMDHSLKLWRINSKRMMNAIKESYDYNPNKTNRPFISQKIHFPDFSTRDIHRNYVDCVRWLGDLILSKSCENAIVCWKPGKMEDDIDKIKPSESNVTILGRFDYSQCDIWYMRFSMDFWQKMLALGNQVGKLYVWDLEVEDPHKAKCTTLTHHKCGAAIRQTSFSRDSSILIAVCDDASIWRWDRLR
EZH2 enzyme complex, sequence (Q15022 whole entry partner): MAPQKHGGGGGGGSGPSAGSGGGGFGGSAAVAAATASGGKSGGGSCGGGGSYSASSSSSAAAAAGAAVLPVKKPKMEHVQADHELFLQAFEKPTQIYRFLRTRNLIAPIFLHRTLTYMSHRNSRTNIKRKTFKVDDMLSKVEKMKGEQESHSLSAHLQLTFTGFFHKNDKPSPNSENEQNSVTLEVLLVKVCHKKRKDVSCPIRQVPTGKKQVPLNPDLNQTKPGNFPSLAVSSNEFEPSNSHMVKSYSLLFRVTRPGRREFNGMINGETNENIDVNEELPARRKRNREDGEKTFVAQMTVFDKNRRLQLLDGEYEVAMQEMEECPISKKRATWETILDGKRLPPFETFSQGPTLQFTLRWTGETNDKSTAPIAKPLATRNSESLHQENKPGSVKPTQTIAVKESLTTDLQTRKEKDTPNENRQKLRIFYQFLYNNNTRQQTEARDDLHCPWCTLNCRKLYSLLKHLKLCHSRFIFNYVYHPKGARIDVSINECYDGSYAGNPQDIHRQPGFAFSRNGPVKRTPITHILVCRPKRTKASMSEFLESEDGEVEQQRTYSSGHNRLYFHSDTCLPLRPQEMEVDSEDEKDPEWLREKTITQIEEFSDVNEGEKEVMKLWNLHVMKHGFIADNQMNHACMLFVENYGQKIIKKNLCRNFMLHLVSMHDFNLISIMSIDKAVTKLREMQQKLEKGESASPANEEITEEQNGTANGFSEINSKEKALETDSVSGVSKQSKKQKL

Consider `CCN(c1cc(O[C@H]2C[C@H](N3C[C@@H](C)O[C@@H](C)C3)C2)cc(C(=O)NCc2c(C)cc(C)[nH]c2=O)c1C)C1CCC(F)(F)CC1` [Example 45, 3-((4,4-difluorocyclohexyl)(ethyl)amino)-N-((4,6-dimethyl-2-oxo-1,2-dihydropyridin-3-yl)methyl)-5-(trans-3-(cis-2,6-dimethylmorpholinyl)cyclobutoxy)-2-methylbenzamide], for which the IC50 in series [1] was 10 to 100 nM; in series [2] (WSUDLCL2, 168 h, WSU-DLCL2, Day 7, read-out: IC50 WSU-DLCL2 proliferation Day 7) it was 91 nM; in series [2] (WSUDLCL2, 336 h, WSU-DLCL2, Day 14, read-out: IC50 WSU-DLCL2 proliferation Day 14), 18 nM; in series [3] (168 h, Day 7, read-out: IC50 Pfeiffer proliferation Day 7) it was 69 nM; in series [3] (336 h, Day 14, read-out: IC50 Pfeiffer proliferation Day 14) it was 9.7 nM. In addition, in series [4] (intragastric 250 mg/kg vs intravenous 5 mg/kg), the F is 43.5%. The CL in series [4] (single intravenous 5 mg/kg and intragastric 250 mg/kg study) is recorded as 37.0 ± 8.82 mL/min/lg. In addition, the AUC(0-inf) in series [4] (mouse, plasma, oral, single intravenous 5 mg/kg and intragastric 250 mg/kg study) was 50900 ng·h/mL. Further, the peak concentration (Cmax) in series [4] (mouse, plasma, oral, single intravenous 5 mg/kg and intragastric 250 mg/kg study, read-out: Cmax) was 10500 ± 436 ng/mL. In series [4] (mouse, plasma, oral, single intravenous 5 mg/kg and intragastric 250 mg/kg study, read-out: Tmax), the Tmax amounted to 1 h. This compound gave a half-life in series [4] (mouse, plasma, single intravenous 5 mg/kg and intragastric 250 mg/kg study) of 7.44 ± 2.75 h.

As usually defined, the AUC(0-inf) is total exposure, with the tail of the curve extrapolated. Higher therefore signals high exposure. As usually defined, the Cmax is the highest concentration seen after dosing. Usually Tmax stands for the time at which the peak concentration occurs. By half-life is commonly meant the time needed for the level to fall by half in the phase considered. The low end stands for rapid decline, the high end for slow decline.
